Test results from patent US20260193227A1, “THERAPEUTIC COMPOUNDS AND METHODS” (UNIVERSITY OF IOWA RESEARCH FOUNDATION, priority 2022, published 2026).

Experiments:
[1] = test system: BRCA2-depleted cells; conditions: Hengel et al. 2016; cited from earlier work
[2] = biological target: T1, RAD52-ssDNA interaction (Homo sapiens, UniProt P43351); conditions: Hengel et al. 2016; cited from earlier work
T1 construct: 6xHis; made in house
T1 sequence (P43351 1-418): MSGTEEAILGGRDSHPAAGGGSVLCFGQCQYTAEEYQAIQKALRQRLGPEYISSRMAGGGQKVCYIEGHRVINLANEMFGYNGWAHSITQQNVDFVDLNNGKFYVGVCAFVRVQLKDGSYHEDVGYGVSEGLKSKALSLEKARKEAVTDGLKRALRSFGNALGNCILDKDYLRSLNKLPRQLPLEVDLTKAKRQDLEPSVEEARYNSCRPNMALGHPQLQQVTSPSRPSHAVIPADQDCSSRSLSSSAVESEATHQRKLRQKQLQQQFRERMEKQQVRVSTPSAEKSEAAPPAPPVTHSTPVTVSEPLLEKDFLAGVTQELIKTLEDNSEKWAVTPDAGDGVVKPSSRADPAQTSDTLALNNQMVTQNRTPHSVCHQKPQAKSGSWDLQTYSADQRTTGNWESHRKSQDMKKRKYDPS

[3] = test system: EUFA423F cells; assay: CellTiter-Glo cell viability, BRCA2-mutated cells; type: cell-based, human; conditions: for toxicity towards EUFA423 cells: BRCA2-mutated cells, yes/no; for toxicity / selective toxicity towards BRCA2-mutated cells in cell viability assays: EUFA423F versus EUFA423F HA, CellTiter-Glo, 72 hours
Source text: (§1) Cell lines: EUFA423F cells that are derived from a Fanconi Anemia patient with complementation group D1 and have biallelic mutations (7691 insAT and 9900 insA) in BRCA2 that result in two different truncated forms of BRCA2 (Howlett N G, et al., Science (New York, NY). 2002; 297(5581):606-9) and its counterpart complemented with expression vector for full-length BRCA2 (EUFA HA) were a generous gift from Dr. Simon Powell, Molecular Biology Program, Radiation Oncology, Sloan-Kettering Cancer Center, New York, NY).
(§2) Cell proliferation assay: Selective toxicity of the compounds towards human BRCA2 deficient cells was tested in EUFA423F and its complement EUFA423F HA using CellTiter-Glo® Luminescent Cell Viability Assay (Promega, Madison, WI). The cell lines were maintained in DMEM (Gibco/ThermoFisher Scientific, Waltham, MA) supplemented with 10% FBS and 10 mM HEPES (Gibco/ThermoFisher Scientific, Waltham, MA). EUFA423F HA cells were routinely supplemented with G418 in order to maintain the BRCA2 expression plasmid. Both cell lines were seeded in sterile tissue culture treated, white opaque 384-well plates (Perkin Elmer Inc., Waltham, MA) 3000 cells/well for EUFA423F HA and 2500 cells/well for EUFA423F) and allowed to adhere for 24 hours. Compounds dissolved in DMSO were added in the concentration range of 0-100 μM. Controls were treated with equivalent DMSO volumes. The cells were treated with compounds for 72 hours (to ensure that all cells experienced at least two S-phases). Post treatment, the cells were washed, treated with the CellTiter-Glo® reagent was added and the plate was analyzed as using a Gen5 (ver2.1) luminosity plate reader. The luminescence that reports on ATP generation by the surviving cells was normalized for the DMSO treated control as 100%. The normalized luminescence (average±standard deviation for at least three independent measurements obtained with different cell passages) was plotted in GraphPad Prism as a function of compound concentration. Clonogenic Survival: EUFA423F and EUFA423F HA cells were seeded in a 96 well plate. Compounds dissolved in DMSO were added to final concentrations of 0, 50, and 100 μM for the compound of Example 8 and the compound of Example 1, and 0, 5, and 10 μM for the compounds of Examples 2-7. The cells were treated with compounds for 72 hours. Post treatment, cell cultures were harvested by collecting all non-adherent cells in the well, trypsinization of all adherent cells, combining, pelleting and then resuspending in fresh media. Cultures treated with DMSO only were subsequently counted using a hemocytometer and plated at a density of 2000, 200 and 20 cells per well in 6-well culture plates, equal volumes of cultures were plated each inhibitor concentration. Each treatment and cell density conditions for both cell lines were plated in triplicate. After expanding the colonies for a period of 8 days, cultures were fixed with a solution of 70% ethanol and crystal violet for clonogenic survival analysis. Pictures of individual wells were taken using GelCount (Version 1.3.0.4) by Oxford Optronix (Abingdon UK). A colony had to contain at least 50 cells to be counted. The number of surviving colonies following treatment are presented as a percentage of number of colonies in the experiment where the cells were treated with DMSO only.

[4] = biological target: T2, RPA-ssDNA interaction (Homo sapiens, UniProt P27694); assay: FRET-based inhibition of the RPA-ssDNA interaction; type: binding; conditions: 1 nM RPA, 1 nM Cy3-dT30-Cy5 ssDNA; value ± fitting error; N/A = no activity
T2 construct: made in house
Experimental: (§3) Proteins: The 6×His-tagged human RAD52 proteins (wild type and mutants) and untagged human RPA were expressed and purified as previously described in (Hengel S R, eLife. 2016; 5; Grimme J M, et al., Nucleic Acids Res. 2010; 38(9):2917-30; and Henricksen L A, et al., The Journal of biological chemistry. 1994; 269(15):11121-32). RPA and RAD52 protein concentrations were determined by measuring absorbance at 280 nm using extinction coefficients of 88,830 M^−1 cm^−1 and 40,470 M^−1 cm^−1, respectively.
(§4) FRET-based DNA binding and inhibition assays: FRET-based that monitor the RAD52-ssDNA, RPA-ssDNA and RAD52-RPA-ssDNA binding were carried out as previously described (Hengel S R, eLife. 2016; 5; Grimme J M, et al., Nucleic Acids Res. 2010; 38(9):2917-30; and Grimme J M, Spies M. FRET-based assays to monitor DNA binding and annealing by Rad52 recombination mediator protein. Methods in molecular biology (Clifton, NJ). 2011; 745:463-83) using Cary Eclipse Spectrofluorimeter (Agilent) at 25° C., in 5 mm quartz cuvettes, and in buffer containing 30 mM Tris-Acetate (pH 7.5) and 1 mM DTT. Cy3 dye was excited at 530 nm and its emission was monitored at 565 nm. Emission of Cy5 acceptor fluorophore excited through the energy transfer from Cy3 donor is monitored at 660 nm simultaneously with emission of Cy3 dye. Both the excitation and the emission slits were set to 10 nm. All experiments were carried out using 1 nM (molecules) Cy3-dT30-Cy5 ssDNA. The optimal concentrations of the RAD52 (6 nM) and RPA (1 nM) proteins were selected by titrating the respective protein into 1 nM Cy3-dT30-Cy5 solution, and chosen based on the largest separation of the FRET values corresponding to the protein bound and free DNA.
(§5) The inhibition of the RAD52-ssDNA, RPA-ssDNA and RAD52-RPA-ssDNA complexes was evaluated by titrating each compound to the respective complex, measuring Cy3 and Cy5 fluorescence, and calculating FRET as previously described (Hengel, S. R., et al., eLife, 5).
(§6) Spectral properties of many compounds overlapped with the Cy3 and Cy5 fluorescence. To correct the calculated FRET values for the compound signal, the fluorogenic compounds were titrated into buffer and into solution of 1 nM Cy3-dT30-Cy5. For all tested compounds, the change in the signal in the Cy3 and Cy5 channels with and without Cy3/Cy5-labeled DNA present was the same. […] To account for the dye fluorescence, for each compound concentration, the apparent change in FRET of the ssDNA in the presence the compound was subtracted from the respective FRET signal of the RAD52-ssDNA, RPA-ssDNA or RAD52-ssDNA-RPA complex at the same inhibitor concentration. The IC50 values were calculated by fitting the corrected FRET data to the four-parameter dose response model using GraphPad Prism. All data are shown as average for at least three independent experiments ±standard deviation. The IC50 values are presented with their respective fitting error.

[5] = biological target: T3, RPA-ssDNA-RAD52 complex (Homo sapiens, UniProt P43351); assay: FRET-based inhibition of the RPA-ssDNA-RAD52 complex; type: binding; conditions: for IC50: value ± fitting error, N/A = no activity
T3 construct: 6xHis; made in house
T3 sequence (P43351 1-418): T1 sequence (P43351 1-418)
Experimental: as §3, §4, §5, §6

[6] = biological target: T1, RAD52-ssDNA interaction; assay: FRET-based inhibition of the RAD52-ssDNA interaction; type: binding; conditions: for IC50: 6 nM RAD52, 1 nM Cy3-dT30-Cy5 ssDNA, 25° C., value ± fitting error; for selectivity towards RAD52 over RPA: in vitro FRET-based assays
Experimental: as §3, §4, §5, §6

[7] = test system: EUFA423F HA cells; assay: CellTiter-Glo cell viability, BRCA2-complemented cells; type: cell-based, human; conditions: yes/no
Source text: as §1, §2

[8] = Solubility in cell culture medium; type: physicochemical; conditions: for solubility: plasma or biological fluid
[9] = test system: EUFA423F HA cells; conditions: Clark et al. 2012; Howlett et al. 2002; cited from earlier work
[10] = test system: EUFA423F cells; conditions: Clark et al. 2012; cited from earlier work

T2 sequence (P27694 whole entry): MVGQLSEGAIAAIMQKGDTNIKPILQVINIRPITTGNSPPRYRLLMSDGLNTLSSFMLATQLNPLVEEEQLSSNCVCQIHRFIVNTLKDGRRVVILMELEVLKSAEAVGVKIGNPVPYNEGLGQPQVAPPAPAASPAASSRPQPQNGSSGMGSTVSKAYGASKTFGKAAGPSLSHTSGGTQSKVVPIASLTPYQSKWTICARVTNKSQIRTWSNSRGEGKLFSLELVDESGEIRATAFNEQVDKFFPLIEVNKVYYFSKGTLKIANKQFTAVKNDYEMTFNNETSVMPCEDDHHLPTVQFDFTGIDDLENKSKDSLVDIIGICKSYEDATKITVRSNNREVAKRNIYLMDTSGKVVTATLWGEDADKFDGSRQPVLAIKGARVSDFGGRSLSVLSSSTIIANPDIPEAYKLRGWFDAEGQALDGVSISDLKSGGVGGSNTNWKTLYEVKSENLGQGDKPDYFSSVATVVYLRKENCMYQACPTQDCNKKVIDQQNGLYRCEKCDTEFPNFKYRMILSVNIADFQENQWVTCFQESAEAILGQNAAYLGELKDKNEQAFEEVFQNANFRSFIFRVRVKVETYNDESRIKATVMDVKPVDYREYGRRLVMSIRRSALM
T2 sequence (P15927 whole entry partner): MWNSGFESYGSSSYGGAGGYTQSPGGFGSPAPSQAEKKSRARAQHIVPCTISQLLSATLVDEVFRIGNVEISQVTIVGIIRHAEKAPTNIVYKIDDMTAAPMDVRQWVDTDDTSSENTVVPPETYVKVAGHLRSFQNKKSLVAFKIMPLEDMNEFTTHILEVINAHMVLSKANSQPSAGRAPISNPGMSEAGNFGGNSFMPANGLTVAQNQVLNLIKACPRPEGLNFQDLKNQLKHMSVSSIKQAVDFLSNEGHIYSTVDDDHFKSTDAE
T2 sequence (P35244 whole entry partner): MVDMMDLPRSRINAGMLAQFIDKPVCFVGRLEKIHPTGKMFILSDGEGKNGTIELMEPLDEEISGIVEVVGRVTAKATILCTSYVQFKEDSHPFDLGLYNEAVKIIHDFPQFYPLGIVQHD

SMILES	toxicity towards EUFA423 cells [3]	toxicity / selective toxicity towards BRCA2-mutated cells in cell viability assays [3]	IC50 [4] [µM]	IC50 [5] [µM]	IC50 [6] [µM]	selectivity towards RAD52 over RPA [6]	toxicity towards EUFA423 HA (BRCA2-complemented cells) [7]	further results
Oc1cc(O)c2c(c1)O[C@H](c1cc(O)c(O)c(O)c1)[C@H](O)C2 [EGC, epigallochatechin]	–	–	–	–	–	–	–	efficacy in BRCA2-depleted cells [1]: effective; competition with ssDNA binding to RAD52 [2]: competed with ssDNA binding to RAD52
O=C(Cn1cc([N+](=O)[O-])cc(Br)c1=O)c1c[nH]c2ccc(Cl)cc12 [Example 7]	yes	selectively toxic to BRCA2-mutated cells	28.9 ± 4	4.55 ± 0.16	2.84 ± 0.32	shows selectivity towards RAD52 over RPA	no	–
Cc1c([N+](=O)[O-])ccn(CC(=O)c2c[nH]c3ccc(Br)cc23)c1=O [Example 6]	no	failed to inhibit both BRCA2-mutated and BRCA2-complemented cells	1.12 ± 0.13	0.76 ± 0.05	2.02 ± 0.12	shows selectivity towards RAD52 over RPA	no	solubility / aggregation in cell culture medium [8]: poorly soluble in cell culture medium
O=C(Cn1cc([N+](=O)[O-])cc(Cl)c1=O)c1c[nH]c2ccc(F)cc12 [Example 5]	yes	selectively toxic to BRCA2-mutated cells	–	–	–	shows selectivity towards RAD52 over RPA	no	–
CO[C@@]12[C@H](COC(N)=O)C3=C(C(=O)C(C)=C(N)C3=O)N1C[C@@H]1N[C@@H]12 [mitomycin C]	–	–	–	–	–	–	–	sensitivity of the BRCA2-complemented (HA) cell line to the agent [9]: resistant
O=C(Cn1cc([N+](=O)[O-])cc(F)c1=O)c1c[nH]c2ccc(F)cc12 [Example 2]	yes	–	–	–	–	shows selectivity towards RAD52 over RPA	no	toxicity / selective toxicity towards BRCA2-mutated cells in cell viability assays ([3]; listed as Z58-54): selectively toxic to BRCA2-mutated cells; toxicity / selective toxicity towards BRCA2-mutated cells in cell viability assays ([3]; listed as Z5862216254): effective and specific in cell viability assays; effect on the RPA-ssDNA-RAD52 complex ([5]; FRET titration): unable to dislodge RAD52
C[C@]1(c2nc3c(C(N)=O)cccc3[nH]2)CCCN1 [veliparib]	–	–	–	–	–	–	–	sensitivity of the BRCA2-complemented (HA) cell line to the agent [9]: resistant; sensitivity of EUFA423F cells to the agent [10]: sensitive
Cc1ccn(CC(=O)c2c[nH]c3ccc(F)cc23)c(=O)c1[N+](=O)[O-] [Example 4]	yes	selectively toxic to BRCA2-mutated cells	–	–	–	shows selectivity towards RAD52 over RPA	no	solubility [8]: > 10 µM
Cc1cc([N+](=O)[O-])cn(CC(=O)c2c[nH]c3ccc(Cl)cc23)c1=O [Example 3]	yes	selectively toxic to BRCA2-mutated cells	15.9 ± 1.4	7 ± 0.29	7.97 ± 0.84	shows selectivity towards RAD52 over RPA	no	solubility [8]: > 10 µM
